Data on one compound can be found in patent publication US11065292B2, “Feijoa fruit extract” (CALLAGHAN INNOVATION, priority 2012, dated 2021).

Assay [1] concerns collagen-induced arthritis (CIA) mice. Description: Collagen-induced arthritis mice: clinical score, treadmill, histology, radiology. In kind it is in vivo.
For assay [2], the system named is splenocytes of CIA mice. Description: Cytokine ELISA on splenocytes of CIA mice. It counts as in vivo. The settings on record: mean ± SD, 5 mice. How it is done:
The production of IL-2, IL-4, IL-6, and IFN-γ from mitogen-stimulated splenocytes was determined as previously described (Chouaib, S.; Welte, K.; Mertelsman, R.; Dupont, B.; J. Immunol., 1985, 135, 1172-1179). Spleens were gently teased with forceps in the culture medium producing a suspension of spleen cells (CM, RPMI 1640 containing 10% fetal bovine serum, 2 mM L-glutamine, 1×10^5 units/L of penicillin and streptomycin). The red blood cells were lysed with 3 mL of lysing buffer (0.16 mol/L ammonia chloride Tris buffer, pH 7.2) at 37° C. for 5 minutes. The cells were then washed with CM twice. The cell concentrations were counted and adjusted to 2×10^6 cells/mL. Splenocytes ([…]) were cultured in triplicate on 96-well flat-bottom culture plates. Splenocytes (0.1 mL/well) were stimulated with ConA (1×10^−2 g/L, 0.1 mL/well) to induce IL-2, IL-4 and IFN-γ production. In other plates, splenocytes were cultured with lipopolysaccharide (1×10^−6 g/L) to induce IL-6 production. These plates were incubated at 37° C., 5% CO2; the culture time for IL-2, IL-4 and IL-6 is 24 hours (or 72 hours for IFN-γ). After incubation, supernatants were collected and stored at −70° C. The cytokines were determined by sandwich ELISA as previously described using a commercial kit.
To establish whether the protective effect of the feijoa fruit extract was related to the anti-inflammatory response observed in the CIA mice, pro-inflammatory cytokines (TNF-α, IL-2 and INF-γ) were investigated using the ELISA assay described in Example 3 (Table 9). It is well known that such cytokines play crucial roles in joint destruction by damaging the synovial cells within the joint. Consequently, a reduction in synovial cells within the joint results in an increase in friction, which in turn, results in inflammation and the potential development of arthritis.

The mark [3] stands for this setting: day 56-79, diet with extract (1.8 mg/day) or 10 mg/kg methotrexate, mean ± SD, 5 mice.

Each structure is given as a SMILES string.

On to `CN(Cc1cnc2nc(N)nc(N)c2n1)c1ccc(C(=O)N[C@@H](CCC(=O)O)C(=O)O)cc1` [Methotrexate, methotrexate], for which the “Clinical Score (paw swelling)” value in assay [1] (day 56-79, diet with extract (1.8 mg/day) or 10 mg/kg methotrexate, 5 mice) came out at 10.5 ± 0.7. Further, in assay [1] (setting [3]), the “Foot pressure (treadmill)” value was found to be 141.23 ± 5.28 and the “Running Speed (treadmill)” value was found to be 121.36 ± 1.69 mm/s. Besides, in assay [1] (end of trial, FIGS. 2, 3), the “Histological evaluation of joint sections (H&E)” value is listed as “relatively normal joint structures with little soft tissue swelling”. Besides, in assay [2], the “IFN-γ level by splenocytes” value was 182 ± 21 pg/mL, the “IL-2 level by splenocytes” value was found to be 104 ± 10 pg/mL and the “TNF-α level by splenocytes” value came out at 255 ± 15 pg/mL.
